Assay [1] addresses T1, hAR (human androgen receptor) (Homo sapiens, UniProt P10275).
T1 construct: made in house; host or cells: baculovirus/Sf9 insect cells (crude extract)
T1 sequence (P10275 1-920): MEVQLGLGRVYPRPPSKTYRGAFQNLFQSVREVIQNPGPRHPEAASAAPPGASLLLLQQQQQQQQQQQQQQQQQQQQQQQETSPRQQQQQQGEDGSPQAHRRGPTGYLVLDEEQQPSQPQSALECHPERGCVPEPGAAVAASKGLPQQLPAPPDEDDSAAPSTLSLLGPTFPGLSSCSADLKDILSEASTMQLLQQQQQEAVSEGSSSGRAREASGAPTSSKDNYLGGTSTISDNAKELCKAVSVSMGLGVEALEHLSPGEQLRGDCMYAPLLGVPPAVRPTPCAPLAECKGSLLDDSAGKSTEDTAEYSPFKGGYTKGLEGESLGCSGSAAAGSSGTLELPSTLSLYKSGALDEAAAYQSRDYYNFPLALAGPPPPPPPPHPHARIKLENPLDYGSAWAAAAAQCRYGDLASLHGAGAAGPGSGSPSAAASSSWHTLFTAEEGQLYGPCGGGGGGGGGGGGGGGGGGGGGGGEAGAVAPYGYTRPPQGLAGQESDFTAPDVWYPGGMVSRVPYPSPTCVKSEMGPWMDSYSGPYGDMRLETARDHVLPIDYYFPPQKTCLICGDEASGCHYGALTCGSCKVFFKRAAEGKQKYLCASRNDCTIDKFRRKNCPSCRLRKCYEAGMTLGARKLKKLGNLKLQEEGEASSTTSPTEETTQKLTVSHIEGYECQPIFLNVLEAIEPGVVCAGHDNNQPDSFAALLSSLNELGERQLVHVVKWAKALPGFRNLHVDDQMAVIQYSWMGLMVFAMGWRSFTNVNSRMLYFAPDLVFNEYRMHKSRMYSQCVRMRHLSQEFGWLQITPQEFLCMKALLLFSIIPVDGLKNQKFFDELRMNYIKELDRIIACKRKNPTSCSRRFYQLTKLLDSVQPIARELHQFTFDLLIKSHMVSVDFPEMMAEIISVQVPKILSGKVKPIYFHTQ
Briefly: Competitive hAR binding assay with 3H-DHT tracer. As to the method: The description below describes how the assay was carried out.
Competitive binding analysis was performed on baculovirus/Sf9 generated hAR extracts in the presence or absence of different concentrations of test agent and a fixed concentration of ^3H-dihydrotestosterone (3H-DHT) as tracer. […] Subsequently, the binding reactions are washed three times to completely remove excess unbound ^3H-DHT. hAR bound ^3H-DHT levels are determined in the presence of compounds (i.e. competitive binding) and compared to levels bound when no competitor is present (i.e. maximum binding). Compound binding affinity to the hAR is expressed as the concentration of compound at which one half of the maximum binding is inhibited.

Assay [2] addresses T2, androgen receptor in MDA-MB453-MMTV clone 54-19 cells (Homo sapiens, UniProt P10275).
T2 sequence (P10275 1-920 Q868H): T1 sequence (P10275 1-920) with Q868H
Briefly: AR antagonist cell assay (MMTV-luciferase reporter). It counts as cell-based. On the procedure:
The compounds ability to antagonize the effects of androgen on the androgen receptor were determined in a whole cell assay as described immediately below.
This cell line is a stable transfected cell line with MDA-MB453 cell background (a human breast tumor cell line expressing androgen receptor). A MMTV minimal promoter containing ARE was first cloned in front of a firefly luciferase reporter gene. Then the cascade was cloned into transfection vector pUV120puro. […] Puromycin resistant stable cell line was selected.
Plating medium: DMEM (phenol red free), 10% charcoal treated HyClone serum, 1% L-glutamine
Assay medium: DMEM (phenol red free), 1% charcoal treated HyClone serum, 1% L-glutamine, and 1% penicillin/streptomycin
Assay procedure: • 1. Cells are maintained in culture medium, splitting cells when they reach 80-90% confluence • 2. To test compounds, 10,000 cells/well are plated to opaque 96 cell culture plate in 100 ul/well plating medium, culture for overnight at 37° C. in cell culture incubator • 3. […] Add 10 ul/well freshly prepared DHT (final concentration at […]) to each well, incubate at 37° C. for 17 hr (overnight) • 5.
The results are reported as the mean of multiple tests as described below (the numbers of tests are indicated in the footnote). N.D. denotes that the compound was not tested.

Where [3] appears, read: baculovirus/Sf9 hAR extract, 1 nM 3H-DHT, one hour at 4° C, mean of multiple tests, read-out: AR Binding IC50.
Where [4] appears, read: MDA-MB453-MMTV clone 54-19, inhibition of DHT induced luciferase, 17 hr; mean of multiple tests; read-out: AR Cell IC50.
Setting [5] is: read-out: AR Cell IC50; MDA-MB453-MMTV clone 54-19, inhibition of DHT induced luciferase, 17 hr; mean of multiple tests.

Drawing on patent US20090105349A1, “ANDROGEN MODULATORS” (WARNER-LAMBERT COMPANY LLC, priority 2004, published 2009), this text covers IC50 for 26 molecules.

Changes are numbered by the printed parent chain. Where two headings read alike, the source gives them in different places.

What is called IC50 is the concentration at which inhibition is half-maximal. Turning to `CCCC(=O)Nc1ccc(Oc2ccc(C#N)c(Cl)c2)cc1` [Example 61, N-[4-(3-Chloro-4-cyano-phenoxy)-phenyl]-butyramide], the IC50 in assay [1] (setting [3]) amounted to 163 nM; in assay [2] (setting [4]), 535 nM.
For `CC(=O)c1ccccc1Oc1ccc(C#N)c(C(F)(F)F)c1` [Example 88, 4-(2-Acetyl-phenoxy)-2-trifluoromethyl-benzonitrile], in that order: 276 nM and 123 nM.
Regarding `COc1cccc(Oc2ccc(C#N)c(Cl)c2)c1OC` [Example 54, 2-Chloro-4-(2,3-dimethoxy-phenoxy)-benzonitrile], the IC50 turned out to be 157 nM in assay [1] (setting [3]) and 26 nM in assay [2] (setting [5]).
As for `N#CCOc1ccccc1Oc1ccc(C#N)c(C(F)(F)F)c1` [Example 123, 4-(2-cyanomethoxy-phenoxy)-2-trifluoromethyl-benzonitrile], the IC50 in assay [1] (setting [3]) was found to be 141 nM; in assay [2] (setting [5]) it was 54 nM.
For the molecule `COc1cc(C#N)ccc1Oc1ccccc1C` [Example 125, 3-Methoxy-4-o-tolyloxy-benzonitrile], the IC50 in assay [1] (setting [3]) came out at 433 nM; in assay [2] (setting [4]) it was 50 nM.
Turning to `CSc1ccccc1Oc1ccc(C#N)c(Cl)c1` [Example 3, 2-Chloro-4-(2-methylsulfanyl-phenoxy)-benzonitrile], the IC50 in assay [1] is 47 nM; in assay [2] (setting [5]) it was < 0.32 nM.
Take `CC(C)Oc1ccccc1Oc1ccc(C#N)c(C(F)(F)F)c1` [Example 110, 4-(2-Isopropoxy-phenoxy)-2-trifluoromethyl-benzonitrile]: the IC50 in assay [1] (setting [3]) turned out to be 218 nM; in assay [2] (setting [4]), 206 nM.
For `CCN(CC)C(=O)c1ccccc1Oc1ccc(C#N)c(C(F)(F)F)c1` [Example 106, 2-(4-Cyano-3-trifluoromethyl-phenoxy)-N,N-diethyl-benzamide], in that order: 175 nM and > 1000 nM.
For `CCc1cccc(Oc2ccc(C#N)c(Cl)c2)c1` [Example 34, 2-Chloro-4-(3-ethyl-phenoxy)-benzonitrile], in that order: 181 nM and 924 nM.
Regarding `CCOc1cc(C)ccc1Oc1ccc(C#N)c(Cl)c1` [Example 57, 2-Chloro-4-(2-ethoxy-4-methyl-phenoxy)-benzonitrile], the values for the IC50 in assay [1] and in assay [2] (setting [4]) were 7 nM and > 1000 nM, respectively.
In the same order, the values of `C=CCc1ccccc1Oc1ccc(C#N)c(C(F)(F)F)c1` [Example 105, 4-(2-Allyl-phenoxy)-2-trifluoromethyl-benzonitrile] are 82 nM and > 1000 nM.
In the same order, the values of `Cc1cc(C)c(Oc2ccc(C#N)cc2Cl)c(C)c1` [Example 15, 3-Chloro-(2,4,6-trimethyl-phenoxy)-benzonitrile] are 16 nM and > 1000 nM.
Regarding `N#Cc1ccc(Oc2ccc(F)cc2F)c(Cl)c1` [Example 25, 3-Chloro-4-(2,4-difluoro-phenoxy)-benzonitrile], the IC50 turned out to be 371 nM in assay [1] (setting [3]) and 792 nM in assay [2] (setting [4]).
For the molecule `N#Cc1ccc(Oc2cccc3ccccc23)cc1Cl` [Example 40, 2-Chloro-4-(naphthalen-1-yloxy)-benzonitrile], the values for the IC50 in assay [1] and in assay [2] (setting [5]) were 31 nM and 90 nM, respectively.
In the case of `CC(=O)c1c(O)cccc1Oc1ccc(C#N)c(C(F)(F)F)c1` [Example 85, 4-(2-Acetyl-3-hydroxy-phenoxy)-2-trifluoromethyl-benzonitrile], the results for the IC50 in assay [1] (setting [3]) and in assay [2] (setting [5]) were 111 nM and 4 nM, respectively.
For the molecule `COc1cc(C)ccc1Oc1ccc(C#N)c(Cl)c1` [Example 47, 2-Chloro-4-(2-methoxy-4-methyl-phenoxy)-benzonitrile], the results for the 50% inhibitory concentration (IC50) in assay [1] and in assay [2] (setting [4]) were 4 nM and > 1000 nM, respectively.
For `N#Cc1ccc(Oc2cccc(O)c2)cc1C(F)(F)F` [Example 82, 4-(3-Hydroxy-phenoxy)-2-trifluoromethyl-benzonitrile], the IC50 in assay [1] was 85 nM; in assay [2] (setting [5]), 61 nM.
In the case of `N#Cc1ccc(Oc2ccc(F)cc2F)cc1Cl` [Example 36, 2-Chloro-4-(2,4-difluoro-phenoxy)-benzonitrile], the IC50 in assay [1] stood at 52 nM; in assay [2] (setting [4]) it was 144 nM.
For `COc1ccccc1Oc1ccc(C#N)cc1Cl` [Example 10, 3-Chloro-4-(2-methoxy-phenoxy)-benzonitrile], in that order: 29 nM and 319 nM.
In the case of `N#Cc1ccc(Oc2ccccc2-c2ccccc2)cc1Cl` [Example 69, 4-(Biphenyl-2-yloxy)-2-chloro-benzonitrile], the IC50 in assay [1] (setting [3]) was 159 nM; in assay [2] (setting [4]) it was > 1000 nM.
With `N#Cc1ccc(Oc2ccc(C#N)c(Cl)c2)cc1` [Example 67, 2-Chloro-(4-cyano-phenoxy)-benzonitrile], the figures for the IC50 in assay [1] (setting [3]) and in assay [2] (setting [4]) were 230 nM and 340 nM, respectively.
For `N#Cc1ccc(Oc2ccccc2)cc1Cl` [Example 66, 2-Chloro-4-phenoxy-benzonitrile], in that order: 147 nM and 333 nM.
For `N#Cc1ccc(Oc2ccccc2C2CCCC2)cc1C(F)(F)F` [Example 104, 4-(2-Cyclopentyl-phenoxy)-2-trifluoromethyl-benzonitrile], in that order: 228 nM and 592 nM.
Turning to `C=CCc1cccc(C)c1Oc1ccc(C#N)c(Cl)c1` [Example 44, 4-(2-Allyl-6-methyl-phenoxy)-2-chloro-benzonitrile], the IC50 turned out to be 79 nM in assay [1] and 282 nM in assay [2] (setting [4]).
`CCOc1cc(C)ccc1Oc1ccc(C#N)cc1Cl` [Example 30, 3-Chloro-4-(2-ethoxy-4-methyl-phenoxy)-benzonitrile]: the results for the IC50 in assay [1] (setting [3]) and in assay [2] (setting [4]) were 42 nM and 869 nM, respectively.
Turning to `COc1c(O)cccc1Oc1ccc(C#N)c(C(F)(F)F)c1` [Example 116, 4-(3-Hydroxy-2-methoxy-phenoxy)-2-trifluoromethyl-benzonitrile], the IC50 in assay [1] amounted to 30 nM; in assay [2] (setting [5]), 3 nM.
